The source of these data is patent US20150065717A1, “NIPECOTIC ACID DERIVATIVE AND USE THEREOF FOR MEDICAL PURPOSES” (Toray Industries, Inc., priority 2012, published 2015).

The first assay deals with T1, recombinant human sEH (Homo sapiens, UniProt P34913).
T1 construct: purchased Cayman
T1 sequence (P34913 1-555): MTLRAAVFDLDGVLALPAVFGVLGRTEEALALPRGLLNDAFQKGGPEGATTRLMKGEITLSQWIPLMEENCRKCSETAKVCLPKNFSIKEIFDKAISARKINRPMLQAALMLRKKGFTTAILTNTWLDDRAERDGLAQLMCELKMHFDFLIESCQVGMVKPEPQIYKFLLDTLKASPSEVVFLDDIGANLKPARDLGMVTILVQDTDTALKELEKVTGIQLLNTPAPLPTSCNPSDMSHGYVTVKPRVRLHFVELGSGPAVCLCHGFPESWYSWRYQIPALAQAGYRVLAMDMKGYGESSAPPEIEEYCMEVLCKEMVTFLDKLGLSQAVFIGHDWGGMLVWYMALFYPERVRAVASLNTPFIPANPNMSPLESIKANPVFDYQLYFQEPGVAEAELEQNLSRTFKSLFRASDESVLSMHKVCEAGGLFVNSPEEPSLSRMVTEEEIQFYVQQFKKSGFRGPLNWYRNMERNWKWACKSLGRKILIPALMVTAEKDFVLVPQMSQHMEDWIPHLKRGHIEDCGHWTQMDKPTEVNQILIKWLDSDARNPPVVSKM
In words: In vitro evaluation test for sEH inhibitory activity. Particulars: recombinant human sEH 0.026 μg/mL, fluorescent substrate 6.25 μmol/L, room temperature. The format is biochemical. Here is the method: According to the method described in a known document (Analytical Biochemistry, 2005, vol. 343, p. 66-75), the sEH inhibitory activity of each nipecotic acid derivative (I) or a pharmaceutically acceptable salt thereof was evaluated using human sEH.
A recombinant human sEH (final concentration, 0.026 μg/mL; Cayman) was incubated with each test compound in 25 mM Bis-Tris-HCl buffer (pH 7.0) supplemented with 0.1 mg/mL BSA at room temperature for 30 minutes. Thereafter, cyano(6-methoxynaphthalen-2-yl)methyl 2-(3-phenyloxiran-2-yl)acetate (final concentration, 6.25 μmol/L; Cayman) was added thereto as a fluorescent substrate, and the resulting mixture was incubated at room temperature for 20 minutes. The reaction was then stopped by addition of ZnSO4 (final concentration, 0.2 mol/L), and the fluorescence intensity was measured (Fusion α (Packard); Excitation: 330 nm, Emission:485 nm).
The fluorescence intensity observed with addition of neither sEH nor a test compound was regarded as the sEH enzymatic reaction rate of 0%, and the fluorescence intensity observed with addition of sEH but without addition of a test compound was regarded as the sEH enzymatic reaction rate of 100%. From the obtained fluorescence intensity, the sEH enzymatic reaction rate of each test compound was calculated to determine IC50.
Take `CC(C)(C)C(=O)NC1(C(=O)N2CCC[C@@H](C(=O)NCc3ccc(C#N)cc3OC(F)(F)F)C2)CC1` [Example Compound 27, (R)—N-(4-cyano-2-(trifluoromethoxy)benzyl)-1-(1-pivalamidocyclopropanecarbonyl)piperidine-3-carboxamide]: the IC50 is 2.2 nM. For the molecule `CS(=O)(=O)NC1(C(=O)N2CCC[C@@H](C(=O)NCc3ccc(C#N)cc3OC(F)(F)F)C2)CCOCC1` [Example Compound 28, (R)—N-(4-cyano-2-(trifluoromethoxy)benzyl)-1-(4-(methylsulfonamido)tetrahydro-2H-pyran-4-carbonyl)piperidine-3-carboxamide], the IC50 turned out to be 2.3 nM.

In the case of `N#Cc1ccc(CNC(=O)[C@@H]2CCCN(C(=O)C3(NC(=O)C4CC4)CCC3)C2)c(OC(F)(F)F)c1` [Example Compound 29, (R)—N-(4-cyano-2-(trifluoromethoxy)benzyl)-1-(1-(cyclopropanecarboxamide)cyclobutanecarbonyl)piperidine-3-carboxamide], the IC50 amounted to 1.7 nM.

Take `CC(=O)N[C@@H](C(=O)N1CCC[C@@H](C(=O)NCc2ccc(C#N)cc2OC(F)(F)F)C1)C(C)(C)O` [Example Compound 30, (R)-1-((R)-2-acetamido-3-hydroxy-3-methylbutanoyl)-N-(4-cyano-2-(trifluoromethoxy)benzyl)piperidine-3-carboxamide]: the IC50 turned out to be 1.4 nM. On the same count and under the same terms, with `CCC(=O)N[C@@H](C(=O)N1CCC[C@@H](C(=O)NCc2ccc(C#N)cc2OC(F)(F)F)C1)C(C)(C)O` [Example Compound 31, (R)—N-(4-cyano-2-(trifluoromethoxy)benzyl)-1-((R)-3-hydroxy-3-methyl-2-propionamidobutanoyl)piperidine-3-carboxamide] the figure was 1.3 nM; with `CC(C)(O)[C@@H](NS(C)(=O)=O)C(=O)N1CCC[C@@H](C(=O)NCc2ccc(C#N)cc2OC(F)(F)F)C1` [Example Compound 32, (R)—N-(4-cyano-2-(trifluoromethoxy)benzyl)-1-((R)-3-hydroxy-3-methyl-2-(methylsulfonamido)butanoyl)piperidine-3-carboxamide], 1 nM; with `CCCC(=O)NC1(C(=O)N2CCC[C@@H](C(=O)NCc3ccc(C#N)cc3OC(F)(F)F)C2)CCC1` [Example Compound 33, (R)-1-(1-butylamidocyclobutanecarbonyl)-N-(4-cyano-2-(trifluoromethoxy)benzyl)piperidine-3-carboxamide], 2.4 nM. The same measure, in the same setting: under `N#Cc1ccc(CNC(=O)[C@@H]2CCCN(C(=O)C3(NC(=O)CC4CC4)CCC3)C2)c(OC(F)(F)F)c1` [Example Compound 34, (R)—N-(4-cyano-2-(trifluoromethoxy)benzyl)-1-(1-(2-cyclopropylacetamido)cyclobutanecarbonyl)piperidine-3-carboxamide] stands 0.8 nM; under `N#Cc1ccc(CNC(=O)[C@@H]2CCCN(C(=O)C3(NC(=O)CC4CC4)CC3)C2)c(OC(F)(F)F)c1` [Example Compound 35, (R)—N-(4-cyano-2-(trifluoromethoxy)benzyl)-1-(1-(2-cyclopropylacetamido)cyclopropanecarbonyl)piperidine-3-carboxamide], 6.7 nM. Same read-out and setting: under `CC(C)(C(=O)N1CCC[C@@H](C(=O)NCc2ccc(C#N)cc2OC(F)(F)F)C1)n1cncn1` [Example Compound 36, (R)—N-(4-cyano-2-(trifluoromethoxy)benzyl)-1-(2-methyl-2-(1H-1,2,4-triazol-1-yl)propanoyl)piperidine-3-carboxamide] stands 1.5 nM. With `O=C(NCc1ccc(Cl)cc1Cl)[C@@H]1CCCN(C(=O)C2(O)CCCCC2)C1` [Example Compound 38, (R)—N-(2,4-dichlorobenzyl)-1-(1-hydroxycyclohexanecarbonyl)piperidine-3-carboxamide], the IC50 came out at 2.1 nM.

Consider `CC(=O)N[C@@H](C(=O)N1CCC[C@@H](C(=O)NCc2ccc(Cl)cc2Cl)C1)C(C)(C)O` [Example Compound 39], for which the IC50 is 0.7 nM.

On to `CCC(=O)N[C@@H](C(=O)N1CCC[C@@H](C(=O)NCc2ccc(Cl)cc2Cl)C1)C(C)(C)O` [Example Compound 40, (R)—N-(2,4-dichlorobenzyl)-1-((R)-3-hydroxy-3-methyl-2-propionamidobutanoyl)piperidine-3-carboxamide], for which the IC50 is 0.7 nM. Still for that read-out and setting: with `CC(C)(O)[C@@H](NS(C)(=O)=O)C(=O)N1CCC[C@@H](C(=O)NCc2ccc(Cl)cc2Cl)C1` [Example Compound 41, (R)—N-(2,4-dichlorobenzyl)-1-((R)-3-hydroxy-3-methyl-2-(methylsulfonamido)butanoyl)piperidine-3-carboxamide] the figure was 1.1 nM. Same read-out and setting: under `C[C@@H](O)C(=O)N1CCC[C@@H](C(=O)NCc2ccc(C#N)cc2OC(F)(F)F)C1` [Example Compound 42, (R)—N-(4-cyano-2-(trifluoromethoxy)benzyl)-1-((R)-2-hydroxypropanoyl)piperidine-3-carboxamide] stands 3.5 nM; under `CC[C@@H](O)C(=O)N1CCC[C@@H](C(=O)NCc2ccc(C#N)cc2OC(F)(F)F)C1` [Example Compound 43, (R)—N-(4-cyano-2-(trifluoromethoxy)benzyl)-1-((R)-2-hydroxybutanoyl)piperidine-3-carboxamide], 1.2 nM; under `CC(C)[C@@H](O)C(=O)N1CCC[C@@H](C(=O)NCc2ccc(C#N)cc2OC(F)(F)F)C1` [Example Compound 44, (R)—N-(4-cyano-2-(trifluoromethoxy)benzyl)-1-((R)-2-hydroxy-3-methylbutanoyl)piperidine-3-carboxamide], 0.5 nM.

The next assay deals with rat diabetic nephropathy model. In words: Pharmacological effect in rat diabetic nephropathy model (streptozotocin). Particulars: Day 27 after streptozotocin; orally once per day for 20 days from Day 8 (Example Compound 1 10 mg/kg, imidapril 2 mg/kg); mean±standard error, n=6. The format is in vivo, rat (spontaneously hypertensive rat). Here is the method:
Example Compound 1 was administered to a rat diabetic nephropathy model (International Journal of Molecular Medicine, 2007, vol. 19, p. 571-579; Hypertension, 1998, vol. 32, p. 778-785), and the therapeutic effect of the nipecotic acid derivative (I) or a pharmaceutically acceptable salt thereof on chronic renal disease with diabetic nephropathy was evaluated.
Rats (spontaneously hypertensive rat, male, 12 or 13 weeks old; Charles River Laboratories Japan, Inc.) with diabetic nephropathy induced by administration of an aqueous streptozotocin (Enzo Life Sciences, Inc.) solution (40 mg/kg) into the tail vein were provided as “group with induced diabetic nephropathy”. On the other hand, rats to which water for injection was similarly administered were provided as “untreated group”.
Six weeks after administration of streptozotocin, urine was collected using a metabolic cage at room temperature for 24 hours. The urinary albumin concentration in the collected urine was measured by the ELISA method. From the urinary albumin concentration and the urine weight, the amount of urinary albumin excretion was calculated.
To rats showing pathological conditions of diabetic nephropathy in the group with induced diabetic nephropathy, Example Compound 1 (10 mg/kg) or a positive control compound imidapril (2 mg/kg) was orally administered once per day for 20 days from Day 8 after the administration of streptozotocin. […]
After the last administration of the test substance on Day 27 after administration of streptozotocin, urine was collected using a metabolic cage at room temperature for 24 hours. The urinary albumin concentration in the collected urine was measured by the ELISA method. From the urinary albumin concentration and the urine weight, the amount of urinary albumin excretion was calculated. In addition, on Day 18 after administration of streptozotocin, the systemic systolic pressure was measured by the tail-cuff method. On Day 29 after administration of streptozotocin, blood was collected from the abdominal aorta of each rat, and the plasma glucose concentration was measured. […]
For the molecule `CCOC(=O)[C@H](CCc1ccccc1)N[C@@H](C)C(=O)N1C(=O)N(C)C[C@H]1C(=O)O` [imidapril, reference compound], the “amount of urinary albumin excretion” value was 5.66 ± 0.91 mg/day.

As a reminder, the IC50 is the concentration that inhibits the measured activity by half.
